According to patent US9469650B2, “Melampomagnolide B derivatives” (BOARD OF TRUSTEES OF THE UNIVERSITY OF ARKANSAS, priority 2013, dated 2016):

Legend:
[1] = tested on: BT-549; assay: panel of 60 human tumor cell lines, growth inhibition (Breast Cancer); details: Homo sapiens
[2] = tested on: SW-620; assay: panel of 60 human tumor cell lines, growth inhibition (Colon Cancer); details: Homo sapiens
[3] = tested on: K-562; assay: panel of 60 human tumor cell lines, growth inhibition (Leukemia)
[4] = tested on: COLO 205; assay: panel of 60 human tumor cell lines, growth inhibition (Colon Cancer); details: Homo sapiens
[5] = tested on: HS 578T; assay: panel of 60 human tumor cell lines, growth inhibition (Breast Cancer); details: Homo sapiens, Hs-578T
[6] = tested on: SF-268; assay: panel of 60 human tumor cell lines, growth inhibition (CNS Cancer); details: Homo sapiens
[7] = tested on: NCI/ADR-RES; assay: panel of 60 human tumor cell lines, growth inhibition (Ovarian Cancer); details: Homo sapiens
[8] = tested on: MDA-MB-435; assay: panel of 60 human tumor cell lines, growth inhibition (Melanoma); details: Homo sapiens
[9] = tested on: 786-0; assay: panel of 60 human tumor cell lines, growth inhibition (Renal Cancer); details: Homo sapiens
[10] = tested on: T-47D; assay: panel of 60 human tumor cell lines, growth inhibition (Breast Cancer); details: Homo sapiens, T47D
[11] = tested on: ACHN; assay: panel of 60 human tumor cell lines, growth inhibition (Renal Cancer); details: Homo sapiens
[12] = tested on: NCI-H522; assay: panel of 60 human tumor cell lines, growth inhibition (Non-Small Cell Lung Cancer); details: Homo sapiens
[13] = tested on: UO-31; assay: panel of 60 human tumor cell lines, growth inhibition (Renal Cancer); details: Homo sapiens
[14] = tested on: SF-539; assay: panel of 60 human tumor cell lines, growth inhibition (CNS Cancer); details: Homo sapiens
[15] = tested on: HCT-116; assay: panel of 60 human tumor cell lines, growth inhibition (Colon Cancer); details: Homo sapiens
[16] = tested on: OVCAR-5; assay: panel of 60 human tumor cell lines, growth inhibition (Ovarian Cancer); details: Homo sapiens
[17] = tested on: OVCAR-8; assay: as above; details: Homo sapiens
[18] = tested on: IGROV1; assay: as above; details: Homo sapiens

For C=C1C(=O)O[C@H]2[C@H]1CC/C(COC(=S)n1ccnc1)=C\CC[C@@]1(C)O[C@@H]21 [JVM 66], the GI50 ([1]; BT-549) was 18.3 µM, the CC50 ([1]; BT-549, read-out: LC50) was > 100 µM and the IC (TGI) ([1]; BT-549, read-out: TGI) was 68 µM. The GI50 ([2]; SW-620, SW-620, NCI five dose) was 4.86 µM, the CC50 ([2]; SW-620, read-out: LC50) was 78.3 µM and the IC (TGI) ([2]; SW-620, read-out: TGI) was 21.7 µM. The CC50 ([3]; Homo sapiens, K562, read-out: LC50) was > 100 µM, the “Percent Growth” value ([3]; K-562, Log10 Concentration −4.0) was 1% and the “Percent Growth” value ([3]; K-562, Log10 Concentration −5.0) was 16%. For the same compound, the “Percent Growth” value ([3]; K-562, Log10 Concentration −6.0) was 100%, the “Percent Growth” value ([3]; K-562, Log10 Concentration −7.0) was 90% and the “Percent Growth” value ([3]; K-562, Log10 Concentration −8.0) was 96%. For the same compound, the TGI ([3]; K-562, NCI five dose) was >1.00E−4, the GI50 ([4]; COLO 205) was 12.3 µM and the CC50 ([4]; COLO 205, read-out: LC50) was 61.9 µM. For the same compound, the IC (TGI) ([4]; COLO 205, read-out: TGI) was 27.6 µM, the GI50 [5] was 26.5 µM and the CC50 ([5]; read-out: LC50) was > 100 µM. The IC (TGI) ([5]; read-out: TGI) was > 100 µM, the GI50 ([6]; SF-268) was 21.9 µM and the CC50 ([6]; SF-268, read-out: LC50) was > 100 µM. The IC (TGI) ([6]; SF-268, read-out: TGI) was 67.7 µM, the GI50 [7] was 30.1 µM and the CC50 ([7]; read-out: LC50) was > 100 µM. The IC (TGI) ([7]; read-out: TGI) was > 100 µM, the GI50 ([8]; MDA-MB-435) was 16.7 µM and the CC50 ([8]; MDA-MB-435, read-out: LC50) was > 100 µM. The IC (TGI) ([8]; MDA-MB-435, read-out: TGI) was 43.8 µM, the GI50 ([9]; 786-0) was 16.8 µM and the CC50 ([9]; 786-0, read-out: LC50) was 85.7 µM. For the same compound, the IC (TGI) ([9]; 786-0, read-out: TGI) was 37.9 µM, the GI50 [10] was 12.9 µM and the CC50 ([10]; read-out: LC50) was > 100 µM. For the same compound, the IC (TGI) ([10]; read-out: TGI) was 42.4 µM, the GI50 [11] was 6.73 µM and the CC50 ([11]; read-out: LC50) was 50.7 µM. It also gave an IC (TGI) ([11]; read-out: TGI) of 20.4 µM, a GI50 ([12]; NCI-H522) of 5.19 µM and a CC50 ([12]; NCI-H522, read-out: LC50) of 66.9 µM. The IC (TGI) ([12]; NCI-H522, read-out: TGI) was 21.3 µM, the GI50 ([13]; UO-31) was 8.37 µM and the CC50 ([13]; UO-31, read-out: LC50) was 58.1 µM. It also gave an IC (TGI) ([13]; UO-31, read-out: TGI) of 23.4 µM, a GI50 ([14]; SF-539) of 16.7 µM and a CC50 ([14]; SF-539, read-out: LC50) of 69.1 µM. It also gave an IC (TGI) ([14]; SF-539, read-out: TGI) of 34 µM, a GI50 ([15]; HCT-116, HCT-116, NCI five dose) of 2.47 µM and a CC50 ([15]; HCT-116, read-out: LC50) of 33 µM. The IC (TGI) ([15]; HCT-116, read-out: TGI) was 7.03 µM, the GI50 ([16]; OVCAR-5) was 13.5 µM and the CC50 ([16]; OVCAR-5, read-out: LC50) was 78.1 µM. For the same compound, the IC (TGI) ([16]; OVCAR-5, read-out: TGI) was 1760 µM, the GI50 ([17]; OVCAR-8) was 11.4 µM and the CC50 ([17]; OVCAR-8, read-out: LC50) was > 100 µM. For the same compound, the IC (TGI) ([17]; OVCAR-8, read-out: TGI) was > 100 µM, the GI50 ([18]; IGROV-1) was 9.04 µM and the CC50 ([18]; IGROV-1, read-out: LC50) was > 100 µM.
